Data: patent US8933018B2, “Boron containing polybasic bacterial efflux pump inhibitors and therapeutic uses thereof” (priority 2011, dated 2015)

Test system: P. aeruginosa, PAM1723, overexpressing the MexAB-OprM efflux pump
Type: cell-based, Pseudomonas aeruginosa
Settings: lowest EPI concentration giving antibacterial activity with levofloxacin at 1/8 of its MIC, MHB, 20 h at 35° C.
Procedure: All EPI compounds were readily soluble in water and stock solutions were prepared at a final concentration of 10 mg/ml. Stock solutions were further diluted, according to the needs of the particular assay, in Mueller Hinton Broth (MHB). Stock solution was stored at […].
The checkerboard assay was performed in microtiter plates. […] EPIs were diluted in the y-axis, each row containing a single concentration of an EPI. […] The assay was performed in MHB with a final bacterial inoculum of 5 times 10^5 CFU/ml (from an early-log phase culture). Microtiter plates were incubated during 20 h at 35° C. and were read using a microtiter plate reader (Molecular Devices) at 650 nm as well as visual observation using a microtiter plate-reading mirror.

Row | SMILES | MPC8 (Minimum Potentiating Concentration)
1 | NCCN(CCN)C(=O)CC[C@H](N)C(=O)N[C@H](CCc1ccc(C(F)(F)F)cc1)C(=O)Nc1cc(B(O)O)ccc1F [Compound 25, 3-((R)-2-((S)-2-amino-5-(bis(2-aminoethyl)amino)-5-oxopentanamido)-4-(4-(trifluoromethyl)phenyl)butanamido)-4-fluorophenylboronic acid] | B (B = MPC8 of 2.5 μg/ml to less than 10 μg/mL.)
2 | CC1(C)OB(O)c2cc(NC(=O)[C@@H](CCc3ccc(C(F)(F)F)cc3)NC(=O)[C@@H](N)CCC(=O)N(CCN)CCN)ccc21 [Compound 26, (S)-2-amino-N5,N5-bis(2-aminoethyl)-N1-((R)-1-(1-hydroxy-3,3-dimethyl-1,3-dihydrobenzo[c][1,2]oxaborol-6-ylamino)-1-oxo-4-(4-(trifluoromethyl)phenyl)butan-2-yl)pentanediamide] | A (A = MPC8 of less than 2.5 μg/mL.)
3 | CC1(C)OB(O)c2cc(NC(=O)[C@@H](CCc3ccc(C(F)(F)F)cc3)NC(=O)[C@@H](N)CCC(=O)NCC(O)(CN)CN)ccc21 [Compound 27, (S)-2-amino-N5-(3-amino-2-(aminomethyl)-2-hydroxypropyl)-N1-((R)-1-(1-hydroxy-3,3-dimethyl-1,3-dihydrobenzo[c][1,2]oxaborol-6-ylamino)-1-oxo-4-(4-(trifluoromethyl)phenyl)butan-2-yl)pentanediamide] | B (B = MPC8 of 2.5 μg/ml to less than 10 μg/mL.)
4 | NCCN(CCN)C(=O)CC[C@H](N)C(=O)N[C@H](CCc1ccc(C(F)(F)F)cc1)C(=O)Nc1cc(B(O)O)cc(F)c1F [Compound 28, 3-((R)-2-((S)-2-amino-5-(bis(2-aminoethyl)amino)-5-oxopentanamido)-4-(4-(trifluoromethyl)phenyl)butanamido)-4,5-difluorophenylboronic acid] | A (A = MPC8 of less than 2.5 μg/mL.)
5 | NCCN(CCN)C(=O)CC[C@H](N)C(=O)N[C@H](CCc1ccc(C(F)(F)F)cc1)C(=O)Nc1ccc(B(O)O)c(F)c1 [Compound 29, 4-((R)-2-((S)-2-amino-5-(bis(2-aminoethyl)amino)-5-oxopentanamido)-4-(4-(trifluoromethyl)phenyl)butanamido)-2-fluorophenylboronic acid] | B (B = MPC8 of 2.5 μg/ml to less than 10 μg/mL.)
6 | NCCN(CCN)C(=O)CC[C@H](N)C(=O)N[C@H](CCc1ccc(C(F)(F)F)cc1)C(=O)Nc1cc(B(O)O)c(F)cc1F [Compound 30, 5-((R)-2-((S)-2-amino-5-(bis(2-aminoethyl)amino)-5-oxopentanamido)-4-(4-(trifluoromethyl)phenyl)butanamido)-2,4-difluorophenylboronic acid] | C (C = MPC8 of 10 μg/mL or greater.)
7 | NCCN(CCN)C(=O)CC[C@H](N)C(=O)N[C@H](CCc1ccc(C(F)(F)F)cc1)C(=O)Nc1cc2c(c(C(F)(F)F)c1)COB2O [Compound 31, (S)-2-amino-N5,N5-bis(2-aminoethyl)-N1-((R)-1-(1-hydroxy-4-(trifluoromethyl)-1,3-dihydrobenzo[c][1,2]oxaborol-6-ylamino)-1-oxo-4-(4-(trifluoromethyl)phenyl)butan-2-yl)pentanediamide] | B (B = MPC8 of 2.5 μg/ml to less than 10 μg/mL.)
8 | NCCN(CCN)C(=O)CC[C@H](N)C(=O)N[C@H](CCc1ccc(C(F)(F)F)cc1)C(=O)Nc1ccc(F)c(B(O)O)c1 [Compound 32, 5-((R)-2-((S)-2-amino-5-(bis(2-aminoethyl)amino)-5-oxopentanamido)-4-(4-(trifluoromethyl)phenyl)butanamido)-2-fluorophenylboronic acid] | B (B = MPC8 of 2.5 μg/ml to less than 10 μg/mL.)
9 | NCCN(CCN)C(=O)CC[C@H](N)C(=O)N[C@H](CCc1ccc(C(F)(F)F)cc1)C(=O)Nc1cc(F)cc(B(O)O)c1 [Compound 33, 3-((R)-2-((S)-2-amino-5-(bis(2-aminoethyl)amino)-5-oxopentanamido)-4-(4-(trifluoromethyl)phenyl)butanamido)-5-fluorophenylboronic acid] | A (A = MPC8 of less than 2.5 μg/mL.)
10 | NCCN(CCN)C(=O)CC[C@H](N)C(=O)N[C@H](CCc1ccc(C(F)(F)F)cc1)C(=O)Nc1cc(F)c(F)c(B(O)O)c1 [Compound 34, 5-((R)-2-((S)-2-amino-5-(bis(2-aminoethyl)amino)-5-oxopentanamido)-4-(4-(trifluoromethyl)phenyl)butanamido)-2,3-difluorophenylboronic acid] | C (C = MPC8 of 10 μg/mL or greater.)
11 | NCCN(CCN)C(=O)CC[C@H](N)C(=O)N[C@H](CCc1ccc(C(F)(F)F)cc1)C(=O)Nc1ccc(B(O)O)cc1F [Compound 35, 4-((R)-2-((S)-2-amino-5-(bis(2-aminoethyl)amino)-5-oxopentanamido)-4-(4-(trifluoromethyl)phenyl)butanamido)-3-fluorophenylboronic acid] | B (B = MPC8 of 2.5 μg/ml to less than 10 μg/mL.)
12 | NCCN(CCN)C(=O)CC[C@H](N)C(=O)N[C@H](CCc1ccc(C(F)(F)F)cc1)C(=O)NC[C@@H]1OB(O)c2ccccc21 [Compound 37, (S)-2-amino-N5,N5-bis(2-aminoethyl)-N1-((R)-1-(((R)-1-hydroxy-1,3-dihydrobenzo[c][1,2]oxaborol-3-yl)methylamino)-1-oxo-4-(4-(trifluoromethyl)phenyl)butan-2-yl)pentanediamide] | A (A = MPC8 of less than 2.5 μg/mL.)
13 | CC1(C)OB(O)c2cc(NC(=O)[C@@H](CCc3ccc(C(F)(F)F)cc3)NC(=O)[C@@H](N)CCC(=O)N[C@@H]3C[C@H](N)C[C@H](N)C3)ccc21 [Compound 38, (S)-2-amino-N5-((1s,3R,5S)-3,5-diaminocyclohexyl)-N1-((R)-1-(1-hydroxy-3,3-dimethyl-1,3-dihydrobenzo[c][1,2]oxaborol-6-ylamino)-1-oxo-4-(4-(trifluoromethyl)phenyl)butan-2-yl)pentanediamide] | A (A = MPC8 of less than 2.5 μg/mL.)
14 | CC1(C)OB(O)c2cc(NC(=O)[C@@H](CCc3ccc(C(F)(F)F)cc3)NC(=O)[C@@H](N)CCC(=O)NC(CN)CN)ccc21 [Compound 39, (S)-2-amino-N^5-(1,3-diaminopropan-2-yl)-N^1-((R)-1-(1-hydroxy-3,3-dimethyl-1,3-dihydrobenzo[c][1,2]oxaborol-6-ylamino)-1-oxo-4-(4-(trifluoromethyl)phenyl)butan-2-yl)pentanediamide] | A (A = MPC8 of less than 2.5 μg/mL.)
15 | CC1(C)OB(O)c2cc(NC(=O)[C@@H](CCc3ccc(C(F)(F)F)cc3)NC(=O)[C@@H](N)CCC(=O)N(C[C@@H](O)CN)C[C@@H](O)CN)ccc21 [Compound 40, (S)-2-amino-N^5,N^5-bis((S)-3-amino-2-hydroxypropyl)-N^1-((R)-1-(1-hydroxy-3,3-dimethyl-1,3-dihydrobenzo[c][1,2]oxaborol-6-ylamino)-1-oxo-4-(4-(trifluoromethyl)phenyl)butan-2-yl)pentanediamide] | B (B = MPC8 of 2.5 μg/ml to less than 10 μg/mL.)
